Test system: A431 cells
Test: EW-excited fluorescence of IRDye labeled EGF interacting with A431 cells on RWG biosensor microplate
Assay type: cell-based, human
Procedure: 384-well Epic® cell assay microplates were obtained from Corning Inc. (Corning, N.Y.). The surface of each Epic® cell assay microplate is tissue culture compatible and enables the attachment and normal growth of adherent cells, including native cells, recombinant or engineered cell lines, primary cells, and like cells.
Cell culturing—Human epidermoid carcinoma A431 cells (American Type Cell Culture) were grown in Dulbecco's modified Eagle's medium (DMEM) supplemented with 10% fetal bovine serum (FBS), 4.5 g/liter glucose, 2 mM glutamine, and antibiotics. About 1.5 to about 2×10^4 cells at passage 3 to 15 suspended in 200 microliters of the DMEM medium containing 10% FBS were placed in each well of a 384-well microplate. After cell seeding, the cells were cultured at 37° C. under air/5% CO2 until about 95% confluency was reached (about 1-2 days). The confluent cells were washed with serum-free medium and incubated in the same medium at 37° C. under air/5% CO2 for 20 hours. On the day of assay, the cells were washed with HBSS (Hanks Balanced Salt Solution with 20 mM HEPES) buffer. The resulting A431 cells were assayed without or with pretreatment with modulators including, for example, AG1478, dynamin inhibitory peptide (DIPC), or unlabeled EGF. The EGFR was activated with the IRDye® labeled EGF and the resultant DMR signals were then recorded.
Optical system—An optical detection system is constructed and used for dual-detection of both EW-based labeled-free signal and EW-excited fluorescence of IR dye molecules as shown in FIG. 2C.
FIGS. 12A to 12D show measured fluorescence intensities of A431 cells cultured on the biosensor microplate surfaces in response to stimulation with IRDye® labeled EGF (64 nM), as a function of time.

[1] = pretreatment 10 micromolar for 1 hr, then IRDye labeled EGF 64 nM (FIG. 12C)

Molecule: COc1cc2ncnc(Nc3cccc(Cl)c3)c2cc1OC [AG1478]
- effect on decay phase in fluorescence intensity [1]: completely blocked
- effect on initial increase phase in fluorescence intensity [1]: complicated effects

Molecule: IRDye-EGF: near-infrared (NIR) labeled recombinant human epidermal growth factor, 54 amino acid residues, conjugated with the IRDye fluorophore; LI-COR Biosciences
- fluorescence intensity as a function of time (IRDye labeled EGF 64 nM, A431 cells without any pretreatment (FIG. 12A)): an initial increase in fluorescence; and thereafter by a slow decrease in fluorescence

Molecule: unlabeled EGF: epidermal growth factor; causes receptor internalization and desensitization; obtained from Sigma
- effect on both the increase and decrease phase in fluorescence intensity (pretreatment 32 nM for 1 hr, then IRDye labeled EGF 64 nM (FIG. 12D)): almost completely blocked

From patent US20120064519A1, “SYSTEM AND METHOD FOR DUAL-DETECTION OF A CELLULAR RESPONSE” (priority 2007, published 2012)
